For data set [1], the target named is T1, von Hippel-Lindau disease tumor suppressor/Estrogen receptor (Homo sapiens, UniProt P03372+P40337). As to the kind of experiment: PROTAC activity at VHL/ER-alpha in human MCF7 cells assessed as ERalpha degradation incubated for 12 hrs by Western blot analysis. It is filed as cell-based. A general note: In western blotting, separated proteins are transferred to a membrane and probed.

Data set [2] has as its target T1, von Hippel-Lindau disease tumor suppressor/Estrogen receptor. Description: PROTAC activity at VHL/ER-alpha in human MCF7 cells assessed as ERalpha degradation at 2 uM incubated for 1 hr by Western blot analysis relative to control. In kind it is cell-based.
Target sequence in this assay (P03372 whole entry, looked up): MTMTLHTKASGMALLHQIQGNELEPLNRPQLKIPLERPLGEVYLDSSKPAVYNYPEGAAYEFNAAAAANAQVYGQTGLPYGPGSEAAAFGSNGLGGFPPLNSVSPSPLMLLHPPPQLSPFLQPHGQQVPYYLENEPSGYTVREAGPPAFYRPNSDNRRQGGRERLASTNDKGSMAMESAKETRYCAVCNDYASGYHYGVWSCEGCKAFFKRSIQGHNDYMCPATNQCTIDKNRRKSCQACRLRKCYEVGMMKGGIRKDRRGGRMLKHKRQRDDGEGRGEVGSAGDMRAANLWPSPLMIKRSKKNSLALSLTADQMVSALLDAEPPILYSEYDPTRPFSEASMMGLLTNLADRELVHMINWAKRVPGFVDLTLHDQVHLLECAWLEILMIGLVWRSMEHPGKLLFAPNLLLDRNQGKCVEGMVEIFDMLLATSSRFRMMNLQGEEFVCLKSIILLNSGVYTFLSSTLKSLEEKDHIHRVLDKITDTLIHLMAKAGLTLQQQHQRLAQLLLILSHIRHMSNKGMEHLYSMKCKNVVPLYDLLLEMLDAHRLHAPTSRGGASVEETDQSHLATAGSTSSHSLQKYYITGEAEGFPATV
Target sequence in this assay (P40337 whole entry, looked up): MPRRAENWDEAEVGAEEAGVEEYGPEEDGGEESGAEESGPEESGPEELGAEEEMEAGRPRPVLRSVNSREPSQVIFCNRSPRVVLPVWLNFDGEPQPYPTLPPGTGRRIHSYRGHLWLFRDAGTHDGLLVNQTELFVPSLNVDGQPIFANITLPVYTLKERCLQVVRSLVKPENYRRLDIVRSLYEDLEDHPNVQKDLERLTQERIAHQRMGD
Data set [3] has the same target. Description: PROTAC activity at VHL/3 Flag-tagged ER-alpha in HBE cells assessed as ERalpha degradation at 0.5 to 10 uM incubated for 6 hr by western blot analysis. In kind it is cell-based. The following applies: dose 0.5-10 µM.
Target sequence in this assay (P03372 whole entry, looked up): as the sequence (P03372 whole entry, looked up) above
Target sequence in this assay (P40337 whole entry, looked up): as the sequence (P40337 whole entry, looked up) above
For data set [4], the system named is BT-474. Description: Antiproliferative activity against human BT-474 cells assessed as inhibition of cell growth at 10 uM incubated for 3 days by hemocytometer cell counting analysis. In kind it is functional, cell-based. The settings on record: time 3.0 day.
The test system of another data set is MCF7. As to the kind of experiment: Antiproliferative activity against human MCF7 cells assessed as inhibition of cell growth at 10 uM incubated for 9 days by hemocytometer cell counting analysis. It is filed as functional, cell-based. The settings on record: time 9.0 day.
The target in data set [5] is T1, von Hippel-Lindau disease tumor suppressor/Estrogen receptor. As to the kind of experiment: PROTAC activity at VHL/3 Flag-tagged ER-alpha in HBE cells assessed as ERalpha degradation incubated for 12 hrs by Western blot analysis. In kind it is cell-based. The settings on record: dose 0.5-10 µM.
Target sequence in this assay (P03372 whole entry, looked up): as the sequence (P03372 whole entry, looked up) above
Target sequence in this assay (P40337 whole entry, looked up): as the sequence (P40337 whole entry, looked up) above
Data set [6] shares this target. Description: PROTAC activity at VHL/ER-alpha in human VHL knockdown MCF7 cells assessed as ERalpha degradation level at 10 uM incubated for 6 hrs by Western blot analysis. In kind it is cell-based.
Target sequence in this assay (P03372 whole entry, looked up): as the sequence (P03372 whole entry, looked up) above
Target sequence in this assay (P40337 whole entry, looked up): as the sequence (P40337 whole entry, looked up) above
For data set [7] the target is unchanged. Description: PROTAC activity at VHL/ER-alpha in human MCF7 cells assessed as ERalpha degradation at 10 uM preincubated for 1 hr with MG132 followed by compound addition and measured after 6 hrs by Western blot analysis. In kind it is cell-based.
Target sequence in this assay (P03372 whole entry, looked up): as the sequence (P03372 whole entry, looked up) above
Target sequence in this assay (P40337 whole entry, looked up): as the sequence (P40337 whole entry, looked up) above
The nature of data set [8]: Stability of compound in mouse plasma at 0.1 mM incubated for 8 hrs by HPLC analysis. In kind it is ADME, cell-free. The following applies: 100 µM.
Data set [9] is described as follows: GSH reactivity of compound in water/acetonitrile solution assessed as release efficiency at 0.1 mM incubated for 48 hrs by HPLC analysis relative to control. It is filed as physicochemical. The following applies: buffer, 100 µM.
The target in data set [10] is T1, von Hippel-Lindau disease tumor suppressor/Estrogen receptor. As to the kind of experiment: PROTAC activity at VHL/3 Flag-tagged ER-alpha in human NCI-H1299 cells assessed as ERalpha degradation incubated for 12 hrs by Western blot analysis. It is filed as cell-based. The settings on record: dose 0.5-10 µM.
Target sequence in this assay (P03372 whole entry, looked up): as the sequence (P03372 whole entry, looked up) above
Target sequence in this assay (P40337 whole entry, looked up): as the sequence (P40337 whole entry, looked up) above
Data set [11] has as its system BT-474. As to the kind of experiment: Antiproliferative activity against human SLC7A11 knockdown BT-474 cells assessed as inhibition of cell growth at 10 uM incubated after 2 days by hemocytometer cell counting analysis. It is filed as functional, cell-based. The following applies: time 2.0 day.
The target in data set [12] is T1, von Hippel-Lindau disease tumor suppressor/Estrogen receptor. As to the kind of experiment: PROTAC activity at VHL/ER-alpha in human MCF7 cells assessed as ERalpha degradation level at 10 uM pretreated with tamoxifen followed by compound addition and measured after 6 hrs by Western blot analysis. In kind it is cell-based.
The target is the same in data set [13]. Description: PROTAC activity at VHL/ER-alpha in human MCF7 cells assessed as ERalpha degradation at 10 uM incubated for 4 hrs by Western blot analysis. In kind it is cell-based.
Data set [14] in a line: Stability of compound in PBS buffer pH 7.4 at 0.1 mM incubated upto 48 hrs by HPLC analysis. It is filed as physicochemical. The following applies: pH 7.4, 48 h, 100 µM.
Data set [15] addresses T1, von Hippel-Lindau disease tumor suppressor/Estrogen receptor. Description: PROTAC activity at VHL/ER-alpha in human MCF7 cells assessed as ERalpha degradation level at 10 uM pretreated with VHL-L followed by compound addition and measured after 6 hrs by Western blot analysis. It is filed as cell-based.
Data set [16] has the same target. As to the kind of experiment: PROTAC activity at VHL/3 Flag-tagged ER-alpha in human A549 cells assessed as ERalpha degradation incubated for 12 hrs by Western blot analysis. It is filed as cell-based. The settings on record: dose 0.5-10 µM.
Data set [17] shares this target. Description: PROTAC activity at VHL/ER-alpha in human MCF7 cells assessed as ERalpha degradation at 10 uM incubated for 6 hrs by Western blot analysis. It is filed as cell-based.
Data set [18] has the same target. Description: PROTAC activity at VHL/GFP-tagged ER-alpha in human A549 cells assessed as ERalpha degradation by Western blot analysis. In kind it is cell-based.
Data set [19] has the same target. Description: PROTAC activity at VHL/3 Flag-tagged ER-alpha in human NCI-H1299 cells assessed as ERalpha degradation incubated for 6 hrs by Western blot analysis. The following applies: dose 0.5-10 µM. In kind it is cell-based.
Data set [20] has the same target. As to the kind of experiment: PROTAC activity at VHL/ER-alpha in human MCF7 cells assessed as ERalpha degradation level at 10 uM by Western blot analysis. It is filed as cell-based. The following applies: time 3-6 hrs, TDE = time-dependent effect.
Data set [21] shares this target. As to the kind of experiment: PROTAC activity at VHL/ER-alpha in human MCF7 cells assessed as ERalpha degradation incubated for 6 hrs by Western blot analysis. The settings on record: dose 0.5-2 µM. It is filed as cell-based.
In data set [22] the test system is BT-474. As to the kind of experiment: Antiproliferative activity against human GCLC knockdown BT-474 cells assessed as inhibition of cell growth at 10 uM incubated after 2 days by hemocytometer cell counting analysis. In kind it is functional, cell-based. The settings on record: time 2.0 day.
Data set [23] deals with T1, von Hippel-Lindau disease tumor suppressor/Estrogen receptor. Description: PROTAC activity at VHL/ER-alpha in human BT-474 cells assessed as ERalpha degradation by Western blot analysis. It is filed as cell-based. The settings on record: TDE = time-dependent effect.
Data set [24] has the same target. As to the kind of experiment: PROTAC activity at VHL/ER-alpha in human MCF7 cells assessed as ERalpha degradation at 0.5 uM incubated for 6 hrs by Western blot analysis relative to control. In kind it is cell-based.
Data set [25] shares this target. Description: PROTAC activity at VHL/ER-alpha in human MCF7 cells assessed as ERalpha degradation level at 10 uM incubated 3 to 6 hrs in the presence of NEM by Western blot analysis. The settings on record: time 3-6 hrs. It is filed as cell-based.

The source made the active and inactive calls. The rule behind the calls is not given here.

A word on the DC50: it is the midpoint of the concentration-degradation curve. Regarding `CC/C(=C(\c1ccccc1)c1ccc(OCC(=O)NCCOCCOCC(=O)N[C@H](C(=O)N2C[C@H](O)C[C@H]2C(=O)NCc2ccc(-c3scnc3C)cc2)C(C)(C)C)cc1)c1ccccc1`, in data set [1], the 50% degradation concentration (DC50) came to 56 nM. The Activity entry is “Dose-Dependent Effect” in data set [1] (dose 0.002-2 µM) and 50% in data set [2].
Consider `CC/C(=C(\c1ccccc1)c1ccc(OCC(=O)NCCOCCOCC(=O)N[C@H](C(=O)N2C[C@H](OS(=O)(=O)c3ccccc3[N+](=O)[O-])C[C@H]2C(=O)NCc2ccc(-c3scnc3C)cc2)C(C)(C)C)cc1)c1ccccc1`, for which the outcome in [3], in data set [13], in data set [17] and in data set [18] was Active. Moreover, the inhibition result with BT-474 [4] and with MCF7 was “Active” throughout. Further, the Activity entry in [5] was “Dose-Dependent Effect”; in data set [9], 70%; in data set [10], “Dose-Dependent Effect”; in data set [16] it was “Dose-Dependent Effect”; in [19], “Dose-Dependent Effect”; in [20], “Tde”. Moreover, the Activity entry in data set [21] was “Dose-Dependent Effect”; in data set [23], “Tde”; in data set [24], 50%. Moreover, the outcome in [6], in data set [7], in [12], in data set [15] and in [25] was inactive. The Stability result in data set [8] and in data set [14] was “Stable” throughout. The inhibition entry in the data set on BT-474 [11] and in the data set with BT-474 [22] was “inactive” in each case.
On to `Cc1ncsc1-c1ccc(CNC(=O)[C@@H]2C[C@@H](O)CN2C(=O)[C@@H](NC(=O)COCCOCCNC(=O)COc2ccc(C(=O)c3c(-c4ccc(O)cc4)sc4cc(O)ccc34)cc2)C(C)(C)C)cc1`, for which the DC50 in [1] came to 188 nM.

The values above are taken from ChEMBL document CHEMBL5390291, “Glutathione-responsive PROTAC for targeted degradation of ERα in breast cancer cells” (Bioorg Med Chem, 2023).
